From patent US9340559B2, “Proteasome inhibitor delanzomib for use in the treatment of lupus” (Cephalon, Inc., priority 2011, dated 2016)

Legend:
[1] = tested on: NZM mice; test: Antinuclear antibody ELISA (anti-Smith, anti-dsDNA), serum of NZM mice (Example 3)
[2] = tested on: NZM mice; test: Serum IL-12 by Luminex, NZM mice (Example 3); format: in vivo, mouse
Protocol: FIG. 48 depicts serum IL-12 concentration in NZM mice. Mean±SEM values for the concentration of mouse serum IL-12 from treated NZM mice at the end of the study.
For the processing of serum samples for cytokine analysis, frozen plasma at −80° C. is thawed on ice, vortexed, and centrifuged for 10 minutes (10,000×g) to remove debris and aggregates. A total of 25-50 μL of serum is used for Luminex assays following the manufacturer's instructions. Ten different mouse cytokines are measured using the mouse cytokine 20-plex bead kit (Invitrogen, Carlsbad, Calif., no. LMC0006). Briefly, filter plates (Millipore, Billerica, Mass., no. MAIPSWU10), are pre-wet with 200 μL of wash solution (kit component) and 25 μL of beads are added per well. Serum samples are diluted and a total volume of 50 μL is added per well (ie, 25 μL of sample serum plus 25 μL of assay diluent as provided by the manufacturer). Plates with beads are incubated for 2 hours at room temperature (RT) on an orbital shaker in the dark. At the end of the incubation, plate(s) are washed twice in kit buffer, secondary biotinylated antibody is added at a 1:10 dilution (100 μL) in biotin diluent provided with the kit. Plates are incubated at RT for 1 hour in the dark then washed twice in kit buffer. Strepavidin in assay diluent is added at 100 μL per well, then incubated for 30 minutes at RT in the dark. The plates are washed 3 times then 100 μL of kit wash solution is added and agitated for 2-3 minutes at RT in the dark. Plates are run immediately following this incubation period on a Luminex xMAP 200 unit with data acquisition and analysis software (Invitrogen, San Diego, Calif., no. MAP0200). All bead washing is performed using a vacuum manifold unit (Pall, Ann Arbor, Mich. no. 5017). For all cytokine Luminex assays, values below the limit of detection set by the lowest point along the standard or set by the manufacturer are considered out of range and are not estimated, but assumed the lowest point along the standard curve for that particular assay.

[3] = tested on: NZM mice; test: Spleen CD38/CD138+ plasma cells by flow cytometry, NZM mice (Example 3)
[4] = tested on: 20S proteasome; test: 20S proteasome activity in spleen (ex vivo fluorogenic assay), NZM mice (Example 2)
[5] = tested on: NZM mice; test: Serum C3 complement ELISA, NZM mice (Example 2)
[6] = tested on: MRL/lpr mice; test: Renal histopathology scoring (kidney IC-GN), MRL/lpr mice; format: in vivo, mouse
Protocol: (§1) For histological analyses, the left kidney from each animal is removed and fixed in 10% buffered neutral 10% formalin (EMD) for 48 hours on an orbital rocker at 25° C., then washed overnight with running dH2O and stored in 70% ethanol at 4° C. until ready to be processed. Kidney stains used for histological analyses included hematoxylin and eosin (H&E), Periodic Acid Schiff (PAS) and Trichrome stains (Wistar Institute, Philadelphia, Pa.). All 3 stained sections are used by the pathologist for scoring purposes. All histological scoring is performed blinded and by an independent board certified veterinary medical pathologist (Julie Engiles, VMD, DACVP). Multiple stains are used to determine score values. Images in FIG. 17 show worst affected area of section selected blindly by the pathologist.
Kidney IC-GN Scoring Method (Smith, Dong et al. 2007):
1. Glomerular cellularity—Score 1-5: Null, low, moderate, high, severe
2. Glomerular necrosis—Score 1-5: Null, low, moderate, high, severe
3. Glomerulosclerosis—Score 1-5: Null, low, moderate, high, severe
4. Interstitial infiltration—Score 1-5: Null, low, moderate, high, severe
5. Tubular atrophy—Score 1-5: Null, low, moderate, high, severe
6. Interstitial fibrosis—Score 1-5: Null, low, moderate, high, severe
7. Vasculitis—Score 1-5: Null, low, moderate, high, severe
Specific Pathologist Definitions: • Necrosis is defined by the presence of nuclear debris/pyknosis within the glomerular tuft indicative of “necrosis.” In many samples, this is a very mild, rare finding within only a very few segments of the glomerular tuft. Also consider effacement of the glomerular tuft by PAS positive, Trichrome negative material necrosis. • Glomerular sclerosis is defined by increased fibroplasia or fibrosis within the glomerular tuft or capsule. […] Most of the vascular changes are mild and could be considered “arteriosclerosis” characterized by proliferation of the smooth muscle cells, and hyalinization of the extracellular matrix. This change may reflect hypertension secondary to glomerular pathology. In very few animals is there overt “vasculitis.” Most inflammatory changes are within the walls of the blood vessels, with little to no damage to the endothelium, and no overt hemorrhage/fibrin leakage. Many also have perivascular rims of fibroblasts.

[7] = tested on: NZM mice; test: Renal histopathology blinded scores, NZM mice (Example 3); format: in vivo, mouse
Protocol: FIG. 52 depicts renal histopathology scores from NZM mice (H&E stained paraffin wax embedded kidney tissues sections from 25 week old mice).
as §1, with “neutral” for “neutral 10%”, “39” for “17”
Kidney IC-GN Scoring Method (Smith, Dong et al. 2007): […]

## CC(C)C[C@H](NC(=O)[C@@H](NC(=O)c1cccc(-c2ccccc2)n1)[C@@H](C)O)B(O)O [COMPOUND A, [(1R)-1-[[(2S,3R)-3-hydroxy-2-[6-phenyl-pyridine-2-carbonyl)amino]-1-oxobutyl]amino]-3-methylbutylboronic acid]
[1]; Group 1 (regimen: Table 42)
  serum anti-dsDNA ANA decrease vs vehicle: 79.6%
  serum anti-smith ANA decrease vs vehicle: 93.8%
[1]; Group 2 (regimen: Table 42)
  serum anti-dsDNA ANA decrease vs vehicle: 69.2%
  serum anti-smith ANA decrease vs vehicle: 85.0%
[1]; Group 4 (regimen: Table 42)
  serum anti-dsDNA ANA decrease vs vehicle: 84.1%
  serum anti-smith ANA decrease vs vehicle: 94.5%
[1]; Group 5 (regimen: Table 42)
  serum anti-dsDNA ANA decrease vs vehicle: 81.0%
  serum anti-smith ANA decrease vs vehicle: 92.4%
[2]; Group 1 (regimen: Table 42)
  serum IL-12 decrease vs vehicle: 92.8%
[2]; Group 2 (regimen: Table 42)
  serum IL-12 decrease vs vehicle: 76.6%
[2]; Group 4 (regimen: Table 42)
  serum IL-12 decrease vs vehicle: 75.7%
[2]; Group 5 (regimen: Table 42)
  serum IL-12 decrease vs vehicle: 70.8%
[3]; Group 1 (regimen: Table 42)
  spleen CD138/CD38 double positive plasma B cells decrease vs vehicle: 56.6%
[3]; Group 2 (regimen: Table 42)
  spleen CD138/CD38 double positive plasma B cells decrease vs vehicle: 38.1%
[3]; Group 4 (regimen: Table 42)
  spleen CD138/CD38 double positive plasma B cells decrease vs vehicle: 49.8%
[3]; Group 5 (regimen: Table 42)
  spleen CD138/CD38 double positive plasma B cells decrease vs vehicle: 24.3%
[3]; Group 6 (regimen: Table 42)
  spleen CD138/CD38 double positive plasma B cells decrease vs vehicle: 47.8%
[4]; COMPOUND A groups
  spleen 20S proteasome inhibition relative to vehicle: ~40%
[4]; G1 3 mg/kg ip, 1× wk
  PD 20S proteasome activity, percent change vs vehicle: −42%
[4]; G2 3 mg/kg ip, 2× wk
  PD 20S proteasome activity, percent change vs vehicle: −41%
[5]; G1 3 mg/kg 1× wk ip
  p, serum C3 complement levels vs G6 Bortezomib 0.3 mg/kg 2× wk ip: p < 0.01
  p, serum C3 complement levels vs G7 CTX 50 mg/kg 1× wk ip: p < 0.001
  p, serum C3 complement levels vs G9 Vehicle 2× wk po: p < 0.05
[5]; G1 3 mg/kg ip, 1× wk
  Serum C3 complement AUC, percent change vs vehicle: 45%
[5]; G2 3 mg/kg 2× wk ip
  p, serum C3 complement levels vs G7 CTX 50 mg/kg 1× wk ip: p < 0.05
[5]; G2 3 mg/kg ip, 2× wk
  Serum C3 complement AUC, percent change vs vehicle: 32%
[5]; once weekly
  serum C3 increase above vehicle: 45%
[6]; COMPOUND A treatment groups
  decrease in average renal pathology score vs vehicle: 1.55-1.86 fold
[6]; G1: 3 mg/kg iv, 1× wk
  EOS glomerular cellularity, percent change vs vehicle: −41%
  EOS glomerular necrosis, percent change vs vehicle: −38%
  EOS glomerulosclerosis, percent change vs vehicle: −39%
  EOS interstitial infiltration, percent change vs vehicle: −42%
  EOS vasculitis, percent change vs vehicle: −33%
  Kidney EOS interstitial fibrosis, percent change vs vehicle: −31%
  Kidney EOS tubular atrophy, percent change vs vehicle: −35%
[6]; G2: 3 mg/kg iv, 2× wk
  EOS glomerular cellularity, percent change vs vehicle: −36%
  EOS glomerular necrosis, percent change vs vehicle: −47%
  EOS glomerulosclerosis, percent change vs vehicle: −45%
  EOS interstitial infiltration, percent change vs vehicle: −61%
  EOS vasculitis, percent change vs vehicle: −45%
  Kidney EOS interstitial fibrosis, percent change vs vehicle: −42%
  Kidney EOS tubular atrophy, percent change vs vehicle: −46%
[6]; G3: 10 mg/kg po, 2× wk
  EOS glomerular cellularity, percent change vs vehicle: −33%
  EOS glomerular necrosis, percent change vs vehicle: −31%
  EOS glomerulosclerosis, percent change vs vehicle: −33%
  EOS interstitial infiltration, percent change vs vehicle: −50%
  EOS vasculitis, percent change vs vehicle: −43%
  Kidney EOS interstitial fibrosis, percent change vs vehicle: −27%
  Kidney EOS tubular atrophy, percent change vs vehicle: −42%
[6]; all 3 COMPOUND A treatment groups
  renal interstitial infiltration reduction vs vehicle: up to 61%
[7]; Group 1 (regimen: Table 42)
  combined average renal histopathology blinded score decrease vs vehicle: 53%
[7]; Group 2 (regimen: Table 42)
  combined average renal histopathology blinded score decrease vs vehicle: 43.6%
[7]; Group 3 (regimen: Table 42)
  combined average renal histopathology blinded score decrease vs vehicle: 18.9%
[7]; Group 4 (regimen: Table 42)
  combined average renal histopathology blinded score decrease vs vehicle: 48.7%
[7]; Group 5 (regimen: Table 42)
  combined average renal histopathology blinded score decrease vs vehicle: 40.5%
